{"source": "the supplement of paper PMC11208160"}
{"assay": "recombinant UMI read abundance after kanamycin selection (control-corrected) (log10(CPM+1)); higher = more efficient recombination; extreme values may be limits of the assay; sequences stand for … in AGTGCAGAGAAAATCGGCCAGTTTTCTCTGCCTGCAGTCCGCATGCCGTGGGACCCCTTGGGTTCTAACCTGTTGCCTAGATTTATGCAGCGGACTGCCTTTCTCCCAAAGTGATAAACCGG…AGGTTGGTTTCACT; site = the 11-nt donor", "summary_of_the_method": "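In Escherichia coli, a pool of donor and donor-binding-loop pairs, each with a 12-nt UMI, was tested for the IS621 bridge recombinase. Plating was on IPTG (0.07 mM) plus kanamycin, or without selection, in two replicates. Recombinant UMIs were amplified by PCR across the donor–target junction and sequenced, and counts were reported as log10(CPM+1) after averaging and control-derived scaling.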"}
{"sequence": "GATTATCCATGGACCGGTTTTCCCGGTAATCCGTATTTGCT (site GACTATCCTAG)", "recombinant UMI read abundance (log10)": 0}
{"sequence": "GATTATCCATGGACCGGTTTTCCCGGTAATCCGTATTTGCT (site GAGTATCCTAG)", "recombinant UMI read abundance (log10)": 0}
{"sequence": "GATTATCCATGGACCGGTTTTCCCGGTAATCCGTATTTGCT (site GATAATCCTAG)", "recombinant UMI read abundance (log10)": 0}
{"sequence": "GATTATCCATGGACCGGTTTTCCCGGTAATCCGTATTTGCT (site GATCATCCTAG)", "recombinant UMI read abundance (log10)": 0.81}
{"sequence": "GATTATCCATGGACCGGTTTTCCCGGTAATCCGTATTTGCT (site GATGATCCTAG)", "recombinant UMI read abundance (log10)": 0}
{"sequence": "GATTATCCATGGACCGGTTTTCCCGGTAATCCGTATTTGCT (site GATTAACCTAG)", "recombinant UMI read abundance (log10)": 0}
{"sequence": "GATTATCCATGGACCGGTTTTCCCGGTAATCCGTATTTGCT (site GATTACCCTAG)", "recombinant UMI read abundance (log10)": 0}
{"sequence": "GATTATCCATGGACCGGTTTTCCCGGTAATCCGTATTTGCT (site GATTAGCCTAG)", "recombinant UMI read abundance (log10)": 0.351}
{"sequence": "GATTATCCATGGACCGGTTTTCCCGGTAATCCGTATTTGCT (site GATTATACTAG)", "recombinant UMI read abundance (log10)": 0}
{"sequence": "GATTATCCATGGACCGGTTTTCCCGGTAATCCGTATTTGCT (site GATTATCCTAA)", "recombinant UMI read abundance (log10)": 0.00555}
{"sequence": "GATTATCCATGGACCGGTTTTCCCGGTAATCCGTATTTGCT (site GATTATCCTAC)", "recombinant UMI read abundance (log10)": 0.0217}
{"sequence": "GATTATCCATGGACCGGTTTTCCCGGTAATCCGTATTTGCT (site GATTATCCTAG)", "recombinant UMI read abundance (log10)": 0}
{"sequence": "GATTATCCATGGACCGGTTTTCCCGGTAATCCGTATTTGCT (site GATTATCCTAT)", "recombinant UMI read abundance (log10)": 0.0146}
{"sequence": "GATTATCCATGGACCGGTTTTCCCGGTAATCCGTATTTGCT (site GATTATCCTCG)", "recombinant UMI read abundance (log10)": 0}
{"sequence": "GATTATCCATGGACCGGTTTTCCCGGTAATCCGTATTTGCT (site GATTATCCTGG)", "recombinant UMI read abundance (log10)": 0}
{"sequence": "GATTATCCATGGACCGGTTTTCCCGGTAATCCGTATTTGCT (site GATTATCCTTG)", "recombinant UMI read abundance (log10)": 0}
{"sequence": "GATTATCCATGGACCGGTTTTCCCGGTAATCCGTATTTGCT (site GATTATGCTAG)", "recombinant UMI read abundance (log10)": 0}
{"sequence": "GATTATCCATGGACCGGTTTTCCCGGTAATCCGTATTTGCT (site GATTATTCTAG)", "recombinant UMI read abundance (log10)": 0}
{"sequence": "GATTATCCATGGACCGGTTTTCCCGGTAATCCGTATTTGCT (site GATTCTCCTAG)", "recombinant UMI read abundance (log10)": 0}
{"sequence": "GATTATCCATGGACCGGTTTTCCCGGTAATCCGTATTTGCT (site GATTGTCCTAG)", "recombinant UMI read abundance (log10)": 0}
{"sequence": "GATTATCCATGGACCGGTTTTCCCGGTAATCCGTATTTGCT (site GATTTTCCTAG)", "recombinant UMI read abundance (log10)": 0}
{"sequence": "GATTATCCATGGACCGGTTTTCCCGGTAATCCGTATTTGCT (site GCTTATCCTAG)", "recombinant UMI read abundance (log10)": 0}
{"sequence": "GATTATCCATGGACCGGTTTTCCCGGTAATCCGTATTTGCT (site GGTTATCCTAG)", "recombinant UMI read abundance (log10)": 0}
{"sequence": "GATTATCCATGGACCGGTTTTCCCGGTAATCCGTATTTGCT (site GTTTATCCTAG)", "recombinant UMI read abundance (log10)": 0}
{"sequence": "GATTATCCATGGACCGGTTTTCCCGGTAATCCGTATTTGCT (site TATTATCCTAG)", "recombinant UMI read abundance (log10)": 0}
{"sequence": "GATTATGCATGGACCGGTTTTCCCGGTAATCCGTATTTGCT (site GATTATACTAG)", "recombinant UMI read abundance (log10)": 1.54}
{"sequence": "GATTATGCATGGACCGGTTTTCCCGGTAATCCGTATTTGCT (site GATTATCCTAG)", "recombinant UMI read abundance (log10)": 0.309}
{"sequence": "GATTATGCATGGACCGGTTTTCCCGGTAATCCGTATTTGCT (site GATTATGCTAG)", "recombinant UMI read abundance (log10)": 2.13}
{"sequence": "GATTATGCATGGACCGGTTTTCCCGGTAATCCGTATTTGCT (site GATTATTCTAG)", "recombinant UMI read abundance (log10)": 0}
{"sequence": "GATTCACCATGGACCGGTTTTCCCGGTAATCCGTATTTGTT (site GATTCACCTAA)", "recombinant UMI read abundance (log10)": 0.0124}
{"sequence": "GATTCGACATGGACCGGTTTTCCCGGTAATCCGTATTTGAC (site GATTAGACTGT)", "recombinant UMI read abundance (log10)": 0}
{"sequence": "GATTCGACATGGACCGGTTTTCCCGGTAATCCGTATTTGAC (site GATTCGACTGT)", "recombinant UMI read abundance (log10)": 2.01}
{"sequence": "GATTCGACATGGACCGGTTTTCCCGGTAATCCGTATTTGAC (site GATTGGACTGT)", "recombinant UMI read abundance (log10)": 0}
{"sequence": "GATTCGACATGGACCGGTTTTCCCGGTAATCCGTATTTGAC (site GATTTGACTGT)", "recombinant UMI read abundance (log10)": 0}
{"sequence": "GATTGCACATGGACCGGTTTTCCCGGTAATCCGTATTTGAC (site GATTGAACTGT)", "recombinant UMI read abundance (log10)": 0}
{"sequence": "GATTGCACATGGACCGGTTTTCCCGGTAATCCGTATTTGAC (site GATTGCACTGT)", "recombinant UMI read abundance (log10)": 1.53}
{"sequence": "GATTGCACATGGACCGGTTTTCCCGGTAATCCGTATTTGAC (site GATTGGACTGT)", "recombinant UMI read abundance (log10)": 0}
{"sequence": "GATTGCACATGGACCGGTTTTCCCGGTAATCCGTATTTGAC (site GATTGTACTGT)", "recombinant UMI read abundance (log10)": 0}
{"sequence": "GATTGCCCATGGACCGGTTTTCCCGGTAATCCGTATTTGAT (site GATTGCCCTAT)", "recombinant UMI read abundance (log10)": 0}
{"sequence": "GATTGCCCATGGACCGGTTTTCCCGGTAATCCGTATTTGAT (site GCTTGCCCTAT)", "recombinant UMI read abundance (log10)": 0.0105}
{"sequence": "GATTGCCCATGGACCGGTTTTCCCGGTAATCCGTATTTGAT (site GGTTGCCCTAT)", "recombinant UMI read abundance (log10)": 0.00714}
{"sequence": "GATTGCCCATGGACCGGTTTTCCCGGTAATCCGTATTTGAT (site GTTTGCCCTAT)", "recombinant UMI read abundance (log10)": 0.00814}
{"sequence": "GATTGGACATGGACCGGTTTTCCCGGTAATCCGTATTTGAA (site GATTGGACTAT)", "recombinant UMI read abundance (log10)": 0.0122}
{"sequence": "GATTGGACATGGACCGGTTTTCCCGGTAATCCGTATTTGAA (site GATTGGACTCT)", "recombinant UMI read abundance (log10)": 0.0133}
{"sequence": "GATTGGACATGGACCGGTTTTCCCGGTAATCCGTATTTGAA (site GATTGGACTGT)", "recombinant UMI read abundance (log10)": 0}
{"sequence": "GATTGGACATGGACCGGTTTTCCCGGTAATCCGTATTTGAA (site GATTGGACTTT)", "recombinant UMI read abundance (log10)": 0.419}
{"sequence": "GATTGGACATGGACCGGTTTTCCCGGTAATCCGTATTTGAC (site AATTGGACTGT)", "recombinant UMI read abundance (log10)": 0.543}
{"sequence": "GATTGGACATGGACCGGTTTTCCCGGTAATCCGTATTTGAC (site CATTGGACTGT)", "recombinant UMI read abundance (log10)": 0.263}
{"sequence": "GATTGGACATGGACCGGTTTTCCCGGTAATCCGTATTTGAC (site GAATGGACTGT)", "recombinant UMI read abundance (log10)": 1.41}
{"sequence": "GATTGGACATGGACCGGTTTTCCCGGTAATCCGTATTTGAC (site GACTGGACTGT)", "recombinant UMI read abundance (log10)": 0}
{"sequence": "GATTGGACATGGACCGGTTTTCCCGGTAATCCGTATTTGAC (site GAGTGGACTGT)", "recombinant UMI read abundance (log10)": 0}
{"sequence": "GATTGGACATGGACCGGTTTTCCCGGTAATCCGTATTTGAC (site GATAGGACTGT)", "recombinant UMI read abundance (log10)": 0.353}
{"sequence": "GATTGGACATGGACCGGTTTTCCCGGTAATCCGTATTTGAC (site GATCGGACTGT)", "recombinant UMI read abundance (log10)": 0.745}
{"sequence": "GATTGGACATGGACCGGTTTTCCCGGTAATCCGTATTTGAC (site GATGGGACTGT)", "recombinant UMI read abundance (log10)": 0}
{"sequence": "GATTGGACATGGACCGGTTTTCCCGGTAATCCGTATTTGAC (site GATTAGACTGT)", "recombinant UMI read abundance (log10)": 0}
{"sequence": "GATTGGACATGGACCGGTTTTCCCGGTAATCCGTATTTGAC (site GATTCGACTGT)", "recombinant UMI read abundance (log10)": 0}
{"sequence": "GATTGGACATGGACCGGTTTTCCCGGTAATCCGTATTTGAC (site GATTGAACTGT)", "recombinant UMI read abundance (log10)": 0}
{"sequence": "GATTGGACATGGACCGGTTTTCCCGGTAATCCGTATTTGAC (site GATTGCACTGT)", "recombinant UMI read abundance (log10)": 0}
{"sequence": "GATTGGACATGGACCGGTTTTCCCGGTAATCCGTATTTGAC (site GATTGGACTAT)", "recombinant UMI read abundance (log10)": 0.0111}
{"sequence": "GATTGGACATGGACCGGTTTTCCCGGTAATCCGTATTTGAC (site GATTGGACTCT)", "recombinant UMI read abundance (log10)": 0.00872}
{"sequence": "GATTGGACATGGACCGGTTTTCCCGGTAATCCGTATTTGAC (site GATTGGACTGA)", "recombinant UMI read abundance (log10)": 0.0103}
{"sequence": "GATTGGACATGGACCGGTTTTCCCGGTAATCCGTATTTGAC (site GATTGGACTGC)", "recombinant UMI read abundance (log10)": 0}
{"sequence": "GATTGGACATGGACCGGTTTTCCCGGTAATCCGTATTTGAC (site GATTGGACTGG)", "recombinant UMI read abundance (log10)": 0}
{"sequence": "GATTGGACATGGACCGGTTTTCCCGGTAATCCGTATTTGAC (site GATTGGACTGT)", "recombinant UMI read abundance (log10)": 0.659}
{"sequence": "GATTGGACATGGACCGGTTTTCCCGGTAATCCGTATTTGAC (site GATTGGACTTT)", "recombinant UMI read abundance (log10)": 0.0228}
{"sequence": "GATTGGACATGGACCGGTTTTCCCGGTAATCCGTATTTGAC (site GATTGGCCTGT)", "recombinant UMI read abundance (log10)": 0}
{"sequence": "GATTGGACATGGACCGGTTTTCCCGGTAATCCGTATTTGAC (site GATTGGGCTGT)", "recombinant UMI read abundance (log10)": 0}
{"sequence": "GATTGGACATGGACCGGTTTTCCCGGTAATCCGTATTTGAC (site GATTGGTCTGT)", "recombinant UMI read abundance (log10)": 0}
{"sequence": "GATTGGACATGGACCGGTTTTCCCGGTAATCCGTATTTGAC (site GATTGTACTGT)", "recombinant UMI read abundance (log10)": 0}
{"sequence": "GATTGGACATGGACCGGTTTTCCCGGTAATCCGTATTTGAC (site GATTTGACTGT)", "recombinant UMI read abundance (log10)": 0}
{"sequence": "GATTGGACATGGACCGGTTTTCCCGGTAATCCGTATTTGAC (site GCTTGGACTGT)", "recombinant UMI read abundance (log10)": 0}
{"sequence": "GATTGGACATGGACCGGTTTTCCCGGTAATCCGTATTTGAC (site GGTTGGACTGT)", "recombinant UMI read abundance (log10)": 0.928}
{"sequence": "GATTGGACATGGACCGGTTTTCCCGGTAATCCGTATTTGAC (site GTTTGGACTGT)", "recombinant UMI read abundance (log10)": 0}
{"sequence": "GATTGGACATGGACCGGTTTTCCCGGTAATCCGTATTTGAC (site TATTGGACTGT)", "recombinant UMI read abundance (log10)": 1.83}
{"sequence": "GATTGGACATGGACCGGTTTTCCCGGTAATCCGTATTTGAG (site GATTGGACTAT)", "recombinant UMI read abundance (log10)": 0.00853}
